{"source": "patent US20250152659A1", "about": "“METHOD FOR PREVENTING OR TREATING PARKINSON'S DISEASE” (Suzhou Mingren Pharmaceutical Biotechnology Co., Ltd., priority 2022, published 2025)", "key": {"HT-22 cells": {"test_system": "HT-22 cells", "experiment": "CCK8 cell viability assay, rotenone toxicity", "assay_type": "cell-based, mouse", "conditions": "Rot 2.5 μM and JP1 25, 50, 100 μM, 24 and 48 hours, dose-dependent", "description": "(§1) The example is to evaluate the protective effects of JP1 on the viability of mouse hippocampal neuronal cells HT-22 and human […] cells (SH-SYSY) induced by Rotenone (Rot) (CCK8 assay).\n(§2) 1) Cell culture and treatment: The human neuroblastoma cell line SH-SYSY and the mouse hippocampal neuron cell line HT-22 were cultured in DMEM medium containing 100 µg/mL streptomycin, 100 U/mL penicillin, and 10% fetal bovine serum at 37° C. in a 5% CO2 environment. The cells were treated with Rotenone (2.5 μM) and JWA targeting peptide JP1 (0, 25, 50, 100 μM) for 24 and 48 hours, respectively. Model cells were tested for cell viability using CCK8 assay, expression levels of inflammasome 3 (NLRP3) and apoptosis related proteins (PARP1, Cleaved caspase1, 3, 9) using Western Blot, and mitochondrial membrane potential (JC1) and intracellular reactive oxygen species (ROS) levels using immunofluorescence staining.\n(§3) Cells were inoculated in a 96-well plate at a density of 8000 cells/well for adherence for 24 hours. The culture medium was discarded and the cells were incubated for 24 and 48 hours with different concentrations of the drug. […] The absorbance value was read by an enzyme immunoassay detector at 450 nm. The cell viability (3 parallel samples in each group, and repeat 3 times) was calculated."}, "SH-SYSY cells": {"test_system": "SH-SYSY cells", "experiment": "CCK8 cell viability assay, rotenone toxicity", "assay_type": "cell-based, human", "conditions": "Rot 2.5 μM and JP1 25, 50, 100 μM, 24 and 48 hours, dose-dependent", "description": "as §1, §2, §3"}, "[1]": {"conditions": "background statement; cited from earlier work"}}, "note": "Where a SMILES comes first, the peptide text is derived from it. [ ]: non-standard residue; d: D form. pS = N[C@@H](COP(=O)(O)O)C(=O)O", "data": [{"smiles": "N=C(N)NCCC[C@H](NC(=O)[C@H](Cc1ccccc1)NC(=O)[C@H](CCCNC(=N)N)NC(=O)[C@H](CC(=O)O)NC(=O)[C@H](COP(=O)(O)O)NC(=O)CNC(=O)[C@@H]1CCCN1C(=O)[C@@H](N)Cc1ccccc1)C(=O)NCC(=O)N[C@@H](CC(=O)O)C(=O)O", "note": "[JP1] (H-FPG[pS]DRFRGD-OH)", "values": [{"measurement": "cell viability, protection against cytotoxicity of Rot", "setting": "HT-22 cells", "result": "significant protective effect"}, {"measurement": "cell viability, protection against cytotoxicity of Rot", "setting": "SH-SYSY cells", "result": "significant protective effect"}, {"measurement": "crossing the blood-brain barrier", "setting": "[1]", "result": "can cross the blood-brain barrier"}]}]}
